For 17 compounds, GI50 and TGI results are on record in PubChem BioAssay (NCI).

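Grown in 96-well plates, cells were treated for 48 hours with each compound at five concentrations. Insufficient inhibition: endpoint recorded as highest concentration tested. At the GI50, growth is halved. TGI: concentration producing complete growth inhibition.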

The test system of the first assay is A498 renal. Description: NCI tumour cell line growth inhibition, 48 h.
For `O=C(Nc1ccc(Cl)cc1)c1cccc(NC2=C(Cl)C(=O)N(Cc3ccccc3)C2=O)c1`, the GI50 was 19.9 µM and the TGI worked out at 47.1 µM.

In the case of `Nc1ncnc2n[nH]c(Nc3ccc(F)cc3)c12`, the GI50 is 8.33 µM and the TGI is 92.8 µM.

As for `CCN(CC)c1ccc(-c2cc(-c3cc(OC)c(OC)c(OC)c3)nc(N3CCOCC3)c2C#N)cc1`, the GI50 is 2.88 µM and the TGI is 39.5 µM.

As for `CC(=O)OC1=CC(n2cc(F)c(=O)[nH]c2=O)OC(C)C1=O` (configuration not stated), the TGI is over 44.9 µM.

For `CC(=O)[C@@]12O[C@@H]1CC1C3CCC4=CC(O)CCC4(C)C3CCC12C` (some centres not stated), the GI50 was 2.04 µM and the TGI worked out at 59.1 µM.

Take `NC1(C(=O)OCc2ccccc2)CCCC1`: the TGI is over 100 µM.

For the compound `Cc1cc(/C=C/c2ccc3cc(N(C)C)ccc3[n+]2C)c(C)n1-c1ccccc1`, the GI50 was 0.286 µM and the TGI turned out to be 2.23 µM.

Turning to `Cn1cnc([N+](=O)[O-])c1S(=O)(=O)Oc1cccc2ccccc12`, the GI50 is 11.8 µM and the TGI was 27.2 µM.

Consider `Fc1cc2[nH]ncc2c2c3c(c(-c4cn[nH]c4)nc12)CCCC3`, for which the GI50 was 0.365 µM and the TGI worked out at 1.64 µM.

As to `COc1cc(OC)cc(-c2cc(=O)c3c(OC)c(OC)c(OC)c(OC)c3o2)c1`, the TGI is 89.6 µM.

`C=C(Br)C(C)(Br)CCC(Br)C(C)(C)Cl` (configuration not stated) gave a TGI of 45.5 µM.

`CSc1nc(NC2OCC(OC(C)=O)C(OC(C)=O)C2OC(C)=O)c(N=CC=Nc2c(NC3OCC(OC(C)=O)C(OC(C)=O)C3OC(C)=O)nc(SC)[nH]c2=O)c(=O)[nH]1` (configuration not stated) displayed a TGI of over 100 µM.

For `O=C1c2cc3c(cc2-c2c1c1ccc(F)cc1c(=O)n2CCCNCCO)OCO3`, the GI50 was 0.137 µM and the TGI was determined as 0.491 µM.

Consider `O=C1OC(O)[C@@H]2[C@H]1[C@H]1CC[C@@H]2O1` (some centres not stated), for which the GI50 is 7.07 µM and the TGI is 51.9 µM.

On to `COc1cccc(-c2nc(-c3ccc(NC(=O)C(C)C)cc3)[nH]c2-c2ccnc(Br)c2)c1`, for which the GI50 is 1.84 µM and the TGI amounted to 6.62 µM.

For `COc1ccc(-c2nnc(COc3ccc(NC(=O)Nc4cc(C(F)(F)F)cc(C(F)(F)F)c4)cc3F)o2)cc1`, the GI50 was 1.56 µM and the TGI stood at 5.03 µM.

As to `COc1ccc(/C=C(/C#N)n2nnc3cccc(F)c32)cc1`, the GI50 is 1.22 µM and the TGI is 4.1 µM.

A further assay relates to BT-549 breast. Description: NCI tumour cell line growth inhibition, 48 h.
Regarding `O=C(Nc1ccc(Cl)cc1)c1cccc(NC2=C(Cl)C(=O)N(Cc3ccccc3)C2=O)c1`, the GI50 is 2.16 µM and the TGI was 13.2 µM.

For `Nc1ncnc2n[nH]c(Nc3ccc(F)cc3)c12`, the GI50 is 56.7 µM and the TGI was over 100 µM.

For `CCN(CC)c1ccc(-c2cc(-c3cc(OC)c(OC)c(OC)c3)nc(N3CCOCC3)c2C#N)cc1`, the GI50 is 0.48 µM and the TGI was over 100 µM.

`CC(=O)OC1=CC(n2cc(F)c(=O)[nH]c2=O)OC(C)C1=O` (configuration not stated): the TGI is over 100 µM.

With `CC(=O)[C@@]12O[C@@H]1CC1C3CCC4=CC(O)CCC4(C)C3CCC12C` (some centres not stated), the GI50 is 27.8 µM and the TGI was over 100 µM.

In turn, `NC1(C(=O)OCc2ccccc2)CCCC1` returned a TGI of 33.8 µM.

Regarding `Cc1cc(/C=C/c2ccc3cc(N(C)C)ccc3[n+]2C)c(C)n1-c1ccccc1`, the GI50 was 0.159 µM and the TGI stood at 1.09 µM.

On to `Cn1cnc([N+](=O)[O-])c1S(=O)(=O)Oc1cccc2ccccc12`, for which the GI50 is 14.4 µM and the TGI turned out to be 30.7 µM.

With `Fc1cc2[nH]ncc2c2c3c(c(-c4cn[nH]c4)nc12)CCCC3`, the GI50 is 1.38 µM and the TGI worked out at 4.94 µM.

As for `COc1cc(OC)cc(-c2cc(=O)c3c(OC)c(OC)c(OC)c(OC)c3o2)c1`, the TGI was over 100 µM.

Consider `C=C(Br)C(C)(Br)CCC(Br)C(C)(C)Cl` (configuration not stated), for which the TGI stood at 52.6 µM.

The compound `CSc1nc(NC2OCC(OC(C)=O)C(OC(C)=O)C2OC(C)=O)c(N=CC=Nc2c(NC3OCC(OC(C)=O)C(OC(C)=O)C3OC(C)=O)nc(SC)[nH]c2=O)c(=O)[nH]1` (configuration not stated) registered a TGI of over 100 µM.

Take `O=C1c2cc3c(cc2-c2c1c1ccc(F)cc1c(=O)n2CCCNCCO)OCO3`: the GI50 is 0.238 µM and the TGI amounted to 1.34 µM.

Consider `O=C1OC(O)[C@@H]2[C@H]1[C@H]1CC[C@@H]2O1` (some centres not stated), for which the GI50 was over 100 µM and the TGI is over 100 µM.

For `COc1cccc(-c2nc(-c3ccc(NC(=O)C(C)C)cc3)[nH]c2-c2ccnc(Br)c2)c1`, the GI50 was 2.04 µM and the TGI is 80.1 µM.

On to `COc1ccc(-c2nnc(COc3ccc(NC(=O)Nc4cc(C(F)(F)F)cc(C(F)(F)F)c4)cc3F)o2)cc1`, for which the GI50 is 2.54 µM and the TGI is 6.05 µM.

Regarding `COc1ccc(/C=C(/C#N)n2nnc3cccc(F)c32)cc1`, the GI50 was 2.39 µM and the TGI was 52.9 µM.

The subject of a further assay is HL-60(TB) leukemia. Description: NCI tumour cell line growth inhibition, 48 h.
For the compound `O=C(Nc1ccc(Cl)cc1)c1cccc(NC2=C(Cl)C(=O)N(Cc3ccccc3)C2=O)c1`, the GI50 is 4.37 µM and the TGI is 18.9 µM.

`Nc1ncnc2n[nH]c(Nc3ccc(F)cc3)c12`: the GI50 is 38.5 µM and the TGI was over 100 µM.

On to `CCN(CC)c1ccc(-c2cc(-c3cc(OC)c(OC)c(OC)c3)nc(N3CCOCC3)c2C#N)cc1`, for which the GI50 is 0.463 µM and the TGI came to 6.08 µM.

`CC(=O)OC1=CC(n2cc(F)c(=O)[nH]c2=O)OC(C)C1=O` (configuration not stated) came in with a TGI of over 100 µM.

`CC(=O)[C@@]12O[C@@H]1CC1C3CCC4=CC(O)CCC4(C)C3CCC12C` (some centres not stated): the GI50 is over 100 µM and the TGI was over 100 µM.

As to `NC1(C(=O)OCc2ccccc2)CCCC1`, the TGI turned out to be 54.5 µM.

Regarding `Cc1cc(/C=C/c2ccc3cc(N(C)C)ccc3[n+]2C)c(C)n1-c1ccccc1`, the GI50 is 0.0939 µM and the TGI worked out at 0.352 µM.

Regarding `Cn1cnc([N+](=O)[O-])c1S(=O)(=O)Oc1cccc2ccccc12`, the GI50 was 5.34 µM and the TGI amounted to 31.4 µM.
